In patent US6114326A, “Use of cabergoline in the treatment of restless legs syndrome” (priority 1999, dated 2000):
Like-named read-outs stand apart in the source and are kept apart here.

Key:
[1] = system: restless legs syndrome patients; test: Prior treatment history of the trial patients
Experimental: See also, Stiasny K., Oertel W. H., Schuiler P. (1998). Cabergoline in RLS, ENS, Nice, Abstract.
Efficacy was assessed by polysomnography and subjective ratings. […] At study entry all patients were comedicated with domperidone (20 mg TID) and five were still under levodopa therapy (400-800 mg).
Subjects. Nine patients (seven women and two men, mean age 54.1±8.7, range 38.1-64.3 years) with idiopathic RLS for 23.1±13.7 years (range 5-47 years) participated. […] At study entry five patients were on levodopa with dosages ranging from 400-800 mg. […] The remaining four patients were off any specific RLS medication during baseline investigation. […] At baseline conditions the physician considered the patients to be extremely ill (2), very ill (4) or markedly ill (3).

[2] = system: restless legs syndrome patients; conditions: 7.5 mg, cited from earlier work
[3] = cited from earlier work
[4] = system: restless legs syndrome patients; conditions: cited from earlier work
[5] = system: restless legs syndrome patients; conditions: cited from earlier work; remark: listed apart in the source
[6] = system: restless legs syndrome patients; conditions: in vivo; cited from earlier work
[7] = system: restless legs syndrome patients; conditions: open clinical trials of opioids; cited from earlier work

CC(C)C[C@H]1C(=O)N2CCC[C@H]2[C@]2(O)O[C@](NC(=O)[C@@H]3C=C4c5cccc6[nH]c(Br)c(c56)C[C@H]4N(C)C3)(C(C)C)C(=O)N12 [Bromocriptine]
side effect under prior treatment ([1]; bromocriptine 5 mg, one patient): severe arterial hypotension | patients with subjective improvement in restlessness and paresthesia compared to placebo ([2]; 1 to 3 hours prior to sleep, double blind crossover): 5 of 6 | side effects ([2]; one patient): transient nasal stuffiness and lightheadedness

N[C@@H](Cc1ccc(O)c(O)c1)C(=O)O [L-dopa]
benefit of previous levodopa therapy ([1]; all patients, standard or standard and slow release): partial benefit | half-life ([3]; levodopa, regular release): 2 to 4 h | suppression of RLS (in words) ([4]; 100 mg with carbidopa 10 mg, most cases): completely suppresses RLS | rebound (augmentation) of PLMS in last part of the night ([4]; 100 mg with carbidopa 10 mg): often observed | rate of augmentation ([4]; 12 week study, Callado-Seidel et al.): 27% | patients with augmentation reporting 3 major symptoms of increased severity ([4]; 22 RLS patients with augmentation): 100% | rate of augmentation in PLMS patients ([4]; Allen and Earley, Sleep 1996): 31% | rate of augmentation in RLS patients ([4]; Allen and Earley, Sleep 1996): 82% | RLS patients with augmentation requiring a medication change ([4]; Allen and Earley): 50% | patients who responded to levodopa ([4]; Earley and Allen): 21 of 51 | time until patients no longer respond well (tolerance) ([4]; L-Dopa or L-Dopa plus dopa-decarboxylase-inhibitor, usually): ≤ 6 months | patients reporting increased movement in other body parts ([4]; RLS patients with augmentation): 7% | tolerance (in words) ([4]; RLS): common | reduction of RLS at bedtime and PLMS throughout the night (in words) ([4]; double-blind PSG study, administered twice at night): significant reduction | efficacy in RLS (in words) ([4]; with peripheral carboxylase inhibitor, 10:1 ratio): effective

CCCN1C[C@H](CSC)C[C@@H]2c3cccc4[nH]cc(c34)C[C@H]21 [Pergolide]
half-life ([3]; pergolide): 7 to 16 h | effect in patients who developed augmentation under levodopa ([5]; 6 month open label trial): some effect | patients who responded well to pergolide ([5]; Earley and Allen): 19 of 26 | pergolide patients with augmentation ([5]; Earley and Allen): 4 of 26 | side effects ([5]; pergolide with low dose L-dopa): orthostatic hypotension and gastrointestinal problems | patients suffering from augmentation ([5]; pergolide, Earley and Allen): 15% | augmentation under pergolide (in words) ([5]; two open trials, follow-up 6 to 28 and 2 to 39 months): to a lower degree and less severe | clinical improvement (in words) ([5]; with low dose L-dopa, patients not responding to L-dopa alone): clinical improvement

NCC1(CC(=O)O)CCCCC1 [gabapentin]
possible side effects [6]: dizziness, sleepiness, fatigue, increased appetite, and unsteadiness

C=CCN1CC[C@]23c4c5ccc(O)c4O[C@H]2C(=O)CC[C@@]3(O)[C@H]1C5 [naloxone]
reversal by naloxone (in words) [7]: reversible
